Here are results for two compounds from ChEMBL document CHEMBL1208751 (Bioorg Med Chem Lett, 2010).

Molecules are shown by their SMILES. Converted amounts (≈) assume the structure as drawn.

This series in a line: Solubility of the compound at pH 6.8. Type of series: physicochemical. The note with it: buffer.

Broadly, the solubility is the dissolved amount per volume that the medium holds. Read a high solubility as a readily soluble substance. `CC(C)CC1n2cncc2CN(Cc2ccc(F)cc2)S1(=O)=O` (configuration not stated) yielded a solubility of less than 0.5 µM.

The compound `C[C@@H](c1ccc(Cl)cc1)N1Cc2cncn2C(CC(C)(C)O)S1(=O)=O` (some centres not stated) had a solubility of 500 µM (≈ 192 µg/mL).
